Measured values: paper PMC10319141, “Imidazoquinolines with improved pharmacokinetic properties induce a high IFNα to TNFα ratio in vitro and in vivo” (Frontiers in Immunology, 2023)
Like-named read-outs stand apart in the source and are kept apart here.

Legend:
[1] = Cassette bioavailability i.v., i.p., p.o. (blood and organ concentrations by HPLC-MS/MS); assay type: in vivo, C57BL/6 mice; settings: for concentration at 1440 min / Cmax: female, C57BL/6, mouse; for Cmax: 15 min after application
Experimental: All samples were extracted with 3 or 6 volumes acetonitrile containing terbuthylazine as an internal standard (ACN) relative to either sample weight or volume. Liquid samples (plasma, culture medium, cell suspensions in stability experiments) were diluted in either 3 (culture medium, cell suspensions) or 6 (plasma) volumes ACN, pellet and blood samples were extracted by addition of ACN followed by sonication for 5 min. Organ samples were digested with 0.5 µg/mg Proteinase K (Genaxxon) for 1 h at 50°C before being homogenized using a Fastprep FP-24 5G instrument (MP-Biomedicals). Homogenates were diluted with 6 volumes ACN and homogenized again. All extracts were cleared by centrifugation at ~20.000xg for 10 min at 4°C.
Quantification of analytes was performed on an Agilent 1260/1290 Infinity system fitted with an Agilent C18 Poroshell 120 column (4.6 x 50 mm, 2.7 µm) coupled to a triple quadrupole Sciex API 4000 MS/MS detector. The mobile phase was composed of water containing 0.1% formic acid (eluent A) and acetonitrile containing 0.1% formic acid (eluent B). Gradient used was: 5% B for 0.5 min, to 100% B in 4.5 min, 100% B for 2 min, to 5% B in 0.5 min, 5% for 2.5 min. MS detection parameters are listed in SI Table S1 .
Experimental Animals. All animal experiments were carried out in accordance with German law (35/9183.81-7/SYN 06/20). Mice, 8-18 weeks old, were purchased from Janvier Laboratories and maintained in a specific-pathogen-free animal facility with chow and water ad libitum. After arrival mice acclimated for a minimum of 7 days.
Formulation. Test compounds were prepared for application in either 1% Tween 80, 9% PEG400 in ultrapure water (Biowest) (i.v., i.p., p.o. application) or 5 mM citric acid in 0.9% saline (Braun) (subcutaneous application). If compounds were administered subcutaneously, injections were carried out into the neck crease.
Collection of Samples. Mice were bled from the tail vein at various timepoints. Heparin (Sigma) or K2-EDTA (Sigma) was added to blood samples to a final […] concentration of 10-15 Unit or 5 mM. Plasma was generated by centrifugation at 6800xg for 8 min at 4°C and stored at -80°C until analyzed by ELISA or CBA. Animals were sacrificed after the indicated time points by CO2 inhalation. Heart blood and organs for compound quantification by HPLC-MS/MS were collected post mortem and stored at –20°C until extracted as described above.
Figure 3 Stability and bioavailability of macrolide conjugates. (A) Stability of A1-mac and A2-mac was measured in human blood, U937 monocytes and RPMI medium over 24 h. […] (B) Peripheral blood was collected 15, 30 60, 120, 180, 240, 360 and 1440 min after compound administration. (C) Organs were sampled 1440 min after compound administration. (A–C) Data are presented as mean ± SD.

human TLR8 = target: T1, human TLR8 (Homo sapiens, UniProt Q9NR97); test: HEK-Blue hTLR8 SEAP reporter assay; assay type: cell-based; settings: for TLR8 activity rel. to assay max: average maximal SEAP secretion relative to maximum secretion observed in the assay; for SEAP secretion from HEK-Blue hTLR-8: in words
T1 construct: host or cells: HEK blue hTLR8 reporter cells
T1 sequence (Q9NR97 27-1041): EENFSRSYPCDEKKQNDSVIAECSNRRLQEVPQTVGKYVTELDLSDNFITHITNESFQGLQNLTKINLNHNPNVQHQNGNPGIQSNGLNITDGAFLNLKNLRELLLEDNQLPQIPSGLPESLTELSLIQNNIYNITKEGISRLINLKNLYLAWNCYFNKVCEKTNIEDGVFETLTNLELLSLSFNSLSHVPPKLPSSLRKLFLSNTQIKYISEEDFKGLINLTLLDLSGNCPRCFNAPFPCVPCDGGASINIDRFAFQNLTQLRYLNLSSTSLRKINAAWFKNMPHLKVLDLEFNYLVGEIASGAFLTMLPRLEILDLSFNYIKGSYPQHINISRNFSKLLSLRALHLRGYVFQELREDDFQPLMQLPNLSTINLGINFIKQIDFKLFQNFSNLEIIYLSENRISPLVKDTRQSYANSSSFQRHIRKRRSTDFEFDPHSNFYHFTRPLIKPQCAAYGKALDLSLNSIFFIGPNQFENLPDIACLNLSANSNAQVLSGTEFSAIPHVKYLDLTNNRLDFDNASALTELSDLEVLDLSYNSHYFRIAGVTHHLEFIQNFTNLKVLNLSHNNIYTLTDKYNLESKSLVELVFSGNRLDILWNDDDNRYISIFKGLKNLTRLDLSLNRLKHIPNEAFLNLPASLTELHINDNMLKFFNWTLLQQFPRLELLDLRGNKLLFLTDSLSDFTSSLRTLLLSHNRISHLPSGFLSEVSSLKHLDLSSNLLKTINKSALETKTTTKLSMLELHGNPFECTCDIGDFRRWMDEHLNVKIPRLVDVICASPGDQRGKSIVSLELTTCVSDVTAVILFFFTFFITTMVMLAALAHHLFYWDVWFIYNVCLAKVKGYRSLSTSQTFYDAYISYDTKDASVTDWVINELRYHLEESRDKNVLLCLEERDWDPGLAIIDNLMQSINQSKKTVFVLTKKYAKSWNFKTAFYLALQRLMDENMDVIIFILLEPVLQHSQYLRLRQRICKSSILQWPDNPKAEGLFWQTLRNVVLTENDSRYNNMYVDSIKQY
Experimental: HEK blue hTLR7 or hTLR8 reporter cells (Invivogen) were cultivated in DMEM High Glucose (Biowest) according to the manufacturer’s instructions. Cells were treated with test compounds and controls at various concentrations in serum-free DMEM and incubated at 37°C, 5% CO2 for 24 h before supernatants were collected.
Relative secreted embryonic alkaline phosphatase (SEAP) activity in the supernatants was determined by quantification of para-Nitrophenyl Phosphate (pNPP)-turnover. Supernatants were diluted 10-fold in a solution containing 1 mM MgCl2, 1 M diethanolamine and 1 mg/mL pNPP and incubated at RT for 15 min before the reaction was stopped by the addition of 0.25 volumes of 1 M NaOH. Absorbance was measured at 405 nm on a Versamax microplate reader (Molecular Devices) and normalized to the mean of >5 solvent controls.
To obtain reliable estimates, replicate measurements of a minimum of 2 experiments were normalized to the maximal SEAP activity of a compound in a given experiment and pooled before fitting a non-linear function to the data.

[2] = kidney, ip, i.p. 2 mg/kg, organs sampled 1440 min after administration, read-out: concentration in kidney
[3] = liver, ip, i.p. 2 mg/kg, organs sampled 1440 min after administration, read-out: concentration in liver
[4] = whole blood (tail vein), iv, i.v. 0.5 mg/kg, tail vein blood

| concentration at 1440 min [1, 2] [nM] | concentration at 1440 min [1, 3] [nM] | Cmax [1, 4] [nM] | Cmax ([1]; whole blood, ip, i.p. 2 mg/kg) [nM] | Cmax ([1]; whole blood, po, p.o. 2 mg/kg) [nM] | TLR8 activity rel. to assay max (human TLR8) | SEAP secretion from HEK-Blue hTLR-8 (human TLR8) | concentration in liver ([1]; i.p. 2 mg/kg, organs sampled 1440 min after administration) | SMILES |
| --- | --- | --- | --- | --- | --- | --- | --- | --- |
| 586 | 3390 | 392 | 299 | 28 | 5% ± 3% | close to baseline |  | CCCCc1nc2c(N)nc3ccccc3c2n1CCC1CCN(C(=O)CN(C)CC(=O)N(C)C2CC(C)OC(OC3C(C)C(OC4CC(C)(OC)C(O)C(C)O4)C(C)C(=O)OC(CC)C(C)(O)C(O)C(C)N(C)CC(C)CC3(C)O)C2O)CC1 (stereo not drawn) [A1-mac] |
| 449 | 2520 | 352 | 138 | 22 | 4% ± 1% | close to baseline |  | CCCCc1nc2c(N)nc3ccccc3c2n1CC1CCN(C(=O)CN(C)CC(=O)N(C)[C@H]2C[C@@H](C)O[C@@H](O[C@@H]3[C@@H](C)[C@H](O[C@H]4C[C@@](C)(OC)[C@@H](O)[C@H](C)O4)[C@@H](C)C(=O)O[C@H](CC)[C@@](C)(O)[C@H](O)[C@@H](C)N(C)C[C@H](C)C[C@@]3(C)O)[C@@H]2O)CC1 [A2-mac] |
|  |  | 854 | 123 | 41 | 96% ± 4% |  | < LOD | CCOCc1nc2c(N)nc3ccccc3c2n1CC(C)(C)O [RSQ, Resiquimod, reference compound] |
|  |  |  |  |  | 11% ± 8% | close to baseline |  | CCCCc1nc2c(N)nc3ccccc3c2n1CCC1CCNCC1 [A1] |
